Laboratory results published in patent EP3365068B1, “COSMETIC COMPOSITIONS FOR SKIN WHITENING” (Lumene Oy, priority 2015, dated 2017).

Key:
[1] = tested on: normal human epidermal melanocytes (NHEM); experiment: Melanin synthesis under stimulated condition (L-tyrosine-induced, OD at 405 nm); assay type: cell-based; settings: tested at 5 µg/ml, L-tyrosine 1 mM, 10 days
Procedure: More specifically, the effect of the compound was evaluated on the following parameters: • 1. […] Melanin synthesis in NHEM stimulated by […]. • 3. […] For the tyrosinase activity assay the following concentrations were tested: 0.33, 1, 3, 9, 27 and 81 mg/ml (the spray-dried cloudberry powder was dissolved in assay buffer). For the melanin synthesis and melanocyte dendricity assay the following concentrations were tested: 0.33, 1 and 3 mg/ml (the spray-dried cloudberry powder was dissolved in culture medium). Melanocytes were seeded in 24-well plates and cultured in their culture medium for 24 hours. The medium was then replaced by culture medium containing or not (stimulated control) the inducer (L-Tyrosine) and the test compound of the reference (lipoic acid at 5 µg/ml). […] In parallel, a non-stimulated control was performed. Each experimental condition was performed in n=3. At the end of incubation, melanin was extracted by cell lysis using a 0.5 N NaOH solution. The optical density (OD) of each experimental point was measured at 405 nm and melanin quantity was calculated using melanin standards. Results were expressed in µg/ml of melanin and in percentage of inhibition compared to control.

[2] = tested on: co-culture of NHEM and normal human epidermal keratinocytes (NHEK); experiment: Melanocyte dendricity under stimulated condition (IBMX, immunofluorescent labeling and image analysis); assay type: cell-based; settings: tested at 0.025 µg/ml, IBMX 200 µM, 72 hours, read-out: % of inhibition of the formation of dendrites by the melanocytes
Procedure: Two further assays were carried out to evaluate the whitening effect of the powder, i.e. melanin synthesis in NHEM stimulated by […] and melanocyte dendricity in a co-culture of NHEM and normal human epidermal keratinocytes (NHEK) in presence of IBMX (a melanocyte dendricity stimulating agent) using in situ immunofluorescent labeling and image analysis. As reference substances in these tests lipoic acid and vincristine, respectively, were used.
More specifically, the effect of the compound was evaluated on the following parameters: • 1. Activity of tyrosinase enzyme extracted from NHEM (acellular assay). • 2. Melanin synthesis in NHEM stimulated by […]. • 3. Melanocyte dendricity in a co-culture of NHEM and normal human epidermal keratinocytes (NHEK) in presence of IBMX (a melanocyte dendricity stimulating agent) using in situ immunofluorescent labeling and image analysis.
For the tyrosinase activity assay the following concentrations were tested: 0.33, 1, 3, 9, 27 and 81 mg/ml (the spray-dried cloudberry powder was dissolved in assay buffer). […]
Images were acquired of the wells (10 photos per well). The labeling was quantified by the measurement of the dendrite fluorescence area normalized to the total number of melanocytes.

Row | Compound | % of inhibition of L-tyrosine-induced melanin synthesis [1] [%] | inhibition at 0.025 µg/mL [2] [%]
1 | O=C(O)CCCC[C@@H]1CCSS1 (racemic) [lipoic acid] | 108 | 
2 | CC[C@]1(O)C[C@H]2CN(CCc3c([nH]c4ccccc34)[C@@](C(=O)OC)(c3cc4c(cc3OC)N(C=O)[C@H]3[C@@](O)(C(=O)OC)[C@H](OC(C)=O)[C@]5(CC)C=CCN6CC[C@]43[C@@H]65)C2)C1 [vincristine] |  | 175
